Measurements as given in PubChem BioAssay (NCI).
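Five concentrations, 48 hours, 96-well plates. The concentration for 50% growth inhibition is given as GI50. TGI is the concentration that stops growth completely.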

Tests used:
Experiment in all cases: DTP human tumour cell line panel, 48 h
[1] = system: 786-0 renal
[2] = system: A498 renal
[3] = system: A549 NSCLC
[4] = system: ACHN renal
[5] = system: BT-549 breast
[6] = system: CAKI-1 renal
[7] = system: CCRF-CEM leukemia
[8] = system: COLO 205 colon
[9] = system: DU-145 prostate
[10] = system: EKVX NSCLC
[11] = system: HCC-2998 colon
[12] = system: HCT-116 colon
[13] = system: HCT-15 colon
[14] = system: HL-60(TB) leukemia
[15] = system: HOP-62 NSCLC
[16] = system: HOP-92 NSCLC
[17] = system: HS 578T breast
[18] = system: HT29 colon
[19] = system: IGROV1 ovarian
[20] = system: K-562 leukemia
[21] = system: KM12 colon
[22] = system: LOX IMVI melanoma
[23] = system: M14 melanoma
[24] = system: MALME-3M melanoma
[25] = system: MCF7 breast
[26] = system: MDA-MB-231 breast
[27] = system: MDA-MB-435
[28] = system: MDA-MB-468 breast
[29] = system: MOLT-4 leukemia
[30] = system: NCI-H226 lung
[31] = system: NCI-H23 lung
[32] = system: NCI-H460 lung
[33] = system: NCI-H522 lung
[34] = system: NCI/ADR-RES ovarian
[35] = system: OVCAR-3 ovarian
[36] = system: OVCAR-4 ovarian
[37] = system: OVCAR-5 ovarian
[38] = system: OVCAR-8 ovarian
[39] = system: PC-3 prostate
[40] = system: RPMI-8226 leukemia
[41] = system: RXF 393 renal
[42] = system: SF-268 CNS
[43] = system: SF-295 CNS
[44] = system: SF-539 CNS
[45] = system: SK-MEL-2 melanoma
[46] = system: SK-MEL-28 melanoma
[47] = system: SK-MEL-5 melanoma
[48] = system: SK-OV-3 ovarian
[49] = system: SN12C renal
[50] = system: SNB-19 CNS
[51] = system: SNB-75 CNS
[52] = system: SR leukemia
[53] = system: SW-620 colon
[54] = system: T-47D breast
[55] = system: TK-10 renal
[56] = system: U251 CNS
[57] = system: UACC-257 melanoma
[58] = system: UACC-62 melanoma
[59] = system: UO-31 renal

Cc1ccc(CNC(=O)Cc2ccc3c(c2)CN(C2CCC(=O)NC2=O)C3=O)cc1 (centres undefined)
GI50 [1]: 20.2 nM | GI50 [2]: 18.3 nM | TGI [2]: 648 nM | GI50 [3]: 51.5 nM | TGI [3]: > 100000 nM | GI50 [4]: 445 nM | TGI [4]: > 100000 nM | GI50 [5]: < 10 nM | TGI [5]: < 12.8 nM | GI50 [6]: 25.1 nM | TGI [6]: > 100000 nM | GI50 [7]: < 10 nM | TGI [7]: > 100000 nM | GI50 [8]: < 10 nM | TGI [8]: 54.5 nM | GI50 [9]: 1090 nM | TGI [9]: > 100000 nM | GI50 [10]: 384 nM | TGI [10]: > 100000 nM | GI50 [11]: < 10 nM | TGI [11]: 258 nM | GI50 [12]: > 36500 nM | TGI [12]: > 100000 nM | GI50 [13]: 16 nM | TGI [13]: 888 nM | GI50 [14]: < 10 nM | TGI [14]: 2740 nM | GI50 [15]: < 10 nM | TGI [15]: 110 nM | GI50 [16]: < 10 nM | TGI [16]: < 19.6 nM | GI50 [17]: < 10 nM | TGI [17]: 267 nM | GI50 [18]: 50.1 nM | TGI [18]: > 100000 nM | GI50 [19]: < 10 nM | TGI [19]: 148 nM | GI50 [20]: 51.5 nM | TGI [20]: > 100000 nM | GI50 [21]: 31.1 nM | TGI [21]: > 100000 nM | GI50 [22]: > 71600 nM | TGI [22]: > 100000 nM | GI50 [23]: < 13.1 nM | TGI [23]: 1850 nM | GI50 [24]: < 10 nM | TGI [24]: < 12.6 nM | GI50 [25]: 21.7 nM | TGI [25]: > 100000 nM | GI50 [26]: < 10 nM | GI50 [27]: 43.6 nM | TGI [27]: > 100000 nM | GI50 [28]: < 10 nM | GI50 [29]: < 10 nM | TGI [29]: > 100000 nM | GI50 [30]: < 10 nM | TGI [30]: 1030 nM | GI50 [31]: 5090 nM | TGI [31]: > 100000 nM | GI50 [32]: > 100000 nM | TGI [32]: > 100000 nM | GI50 [33]: 622 nM | TGI [33]: > 100000 nM | GI50 [34]: 470 nM | TGI [34]: > 100000 nM | GI50 [35]: 160 nM | TGI [35]: > 100000 nM | GI50 [36]: 32.1 nM | GI50 [37]: 16.9 nM | TGI [37]: 1780 nM | GI50 [38]: < 10 nM | GI50 [39]: < 10 nM | GI50 [40]: 40.9 nM | TGI [40]: > 100000 nM | GI50 [41]: 24.8 nM | TGI [41]: 955 nM | GI50 [42]: 29.9 nM | TGI [42]: > 100000 nM | GI50 [43]: 46 nM | TGI [43]: > 100000 nM | GI50 [44]: 50.3 nM | TGI [44]: > 100000 nM | GI50 [45]: 20.6 nM | TGI [45]: 94.5 nM | GI50 [46]: 70.1 nM | TGI [46]: > 100000 nM | GI50 [47]: 14.8 nM | TGI [47]: 59.4 nM | GI50 [48]: 77 nM | GI50 [49]: 21.7 nM | GI50 [50]: < 11.5 nM | GI50 [51]: < 10 nM | TGI [51]: 357 nM | GI50 [52]: 4540 nM | TGI [52]: > 100000 nM | GI50 [53]: < 10 nM | TGI [53]: > 100000 nM | GI50 [54]: < 10 nM | TGI [54]: 29.2 nM | GI50 [55]: 95.3 nM | TGI [55]: > 100000 nM | GI50 [56]: 375 nM | TGI [56]: > 100000 nM | GI50 [57]: > 100000 nM | TGI [57]: > 100000 nM | GI50 [58]: 309 nM | TGI [58]: > 100000 nM | GI50 [59]: 19.1 nM | TGI [59]: 469 nM
